Data reported in patent US12486284B2, “Ubiquitin-specific protease inhibitor and preparation method therefor and use thereof” (CHASER THERAPEUTICS, INC., priority 2019, dated 2025).
Read-outs that look alike come from different tables or passages of the source.

Key:
[1] = molecular target: T1, USP28 (Homo sapiens, UniProt Q96RU2); experiment: USP28 activity measured using ubiquitin-rhodamine 110 method; type: biochemical; details: purified USP28 4 nM, ubiquitin-rhodamine 110 125 nM, 30 min preincubation
T1 construct: purchased R&D Systems
T1 sequence (Q96RU2 1-1077): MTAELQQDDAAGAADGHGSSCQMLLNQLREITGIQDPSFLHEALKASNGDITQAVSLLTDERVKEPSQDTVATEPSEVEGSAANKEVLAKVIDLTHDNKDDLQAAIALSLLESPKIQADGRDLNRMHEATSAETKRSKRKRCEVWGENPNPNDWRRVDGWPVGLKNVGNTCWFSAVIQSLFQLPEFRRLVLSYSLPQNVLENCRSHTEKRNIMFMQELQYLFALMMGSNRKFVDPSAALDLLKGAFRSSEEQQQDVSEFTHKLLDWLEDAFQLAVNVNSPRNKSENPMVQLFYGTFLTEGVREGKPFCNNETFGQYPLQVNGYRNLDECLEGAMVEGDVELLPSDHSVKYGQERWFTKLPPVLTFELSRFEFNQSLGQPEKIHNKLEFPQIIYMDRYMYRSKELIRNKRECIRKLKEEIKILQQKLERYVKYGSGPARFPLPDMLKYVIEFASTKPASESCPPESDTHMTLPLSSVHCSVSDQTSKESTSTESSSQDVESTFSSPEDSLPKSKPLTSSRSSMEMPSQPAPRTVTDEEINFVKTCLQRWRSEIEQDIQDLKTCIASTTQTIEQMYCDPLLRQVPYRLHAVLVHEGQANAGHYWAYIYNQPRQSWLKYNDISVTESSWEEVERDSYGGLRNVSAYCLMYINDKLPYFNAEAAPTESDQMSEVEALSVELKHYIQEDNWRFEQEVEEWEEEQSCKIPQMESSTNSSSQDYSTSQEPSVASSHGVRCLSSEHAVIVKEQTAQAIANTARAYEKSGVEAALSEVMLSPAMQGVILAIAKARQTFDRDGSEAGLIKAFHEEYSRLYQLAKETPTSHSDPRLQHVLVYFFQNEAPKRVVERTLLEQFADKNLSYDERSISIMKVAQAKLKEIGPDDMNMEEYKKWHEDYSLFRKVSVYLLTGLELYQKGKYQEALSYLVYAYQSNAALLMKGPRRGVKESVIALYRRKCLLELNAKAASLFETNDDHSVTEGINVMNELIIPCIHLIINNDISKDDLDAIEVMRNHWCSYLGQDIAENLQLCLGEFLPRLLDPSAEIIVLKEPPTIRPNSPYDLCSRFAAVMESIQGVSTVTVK
Experimental: USP28 activity was measured using ubiquitin-rhodamine 110 method.
(§1) Purified USP28 and the ubiquitin-rhodamine 110 substrate used for measuring DUBs activity were both from R&D Systems. Test compounds were first dissolved in DMSO to prepare a 10 mM stock solution, and then the stock solution was diluted with a buffer solution [containing 20 mM Tris-HCl (pH 8.0), 2 mM CaCl2), 3 mM BME, 0.01% Prionix, 0.01% Triton X-100] to the desired concentration (with DMSO content less than or equal to 0.5%). The dilution was mixed well with USP28 (final concentration 4 nM) in a 96-well plate and incubated at room temperature for 30 min, and then added with the substrate (ubiquitin-rhodamine 110) to 125 nM. The final volume of the whole reaction system was 20 μL. The released fluorescence (excitation wavelength 485 nm, emission wavelength 535 nm) was detected immediately on a microplate reader after the addition of the substrate. The inhibitory rate of the test compound against USP28 was calculated according to the following formula: Inhibition %=1−[(test compound+fluorescence value of substrate−fluorescence value of test compound (no substrate))/mean fluorescence value of DMSO control group−fluorescence value of test compound (no substrate)]
According to the inhibitory rates of the test compound against USP28 under different concentrations, IC50 was calculated.

[2] = molecular target: T2, USP25 (Homo sapiens, UniProt Q9UHP3); experiment: USP25 activity measured using ubiquitin-rhodamine 110 method; type: biochemical; details: purified USP25 15 nM, ubiquitin-rhodamine 110 125 nM, 30 min preincubation
T2 construct: purchased R&D Systems
T2 sequence (Q9UHP3 1-1055): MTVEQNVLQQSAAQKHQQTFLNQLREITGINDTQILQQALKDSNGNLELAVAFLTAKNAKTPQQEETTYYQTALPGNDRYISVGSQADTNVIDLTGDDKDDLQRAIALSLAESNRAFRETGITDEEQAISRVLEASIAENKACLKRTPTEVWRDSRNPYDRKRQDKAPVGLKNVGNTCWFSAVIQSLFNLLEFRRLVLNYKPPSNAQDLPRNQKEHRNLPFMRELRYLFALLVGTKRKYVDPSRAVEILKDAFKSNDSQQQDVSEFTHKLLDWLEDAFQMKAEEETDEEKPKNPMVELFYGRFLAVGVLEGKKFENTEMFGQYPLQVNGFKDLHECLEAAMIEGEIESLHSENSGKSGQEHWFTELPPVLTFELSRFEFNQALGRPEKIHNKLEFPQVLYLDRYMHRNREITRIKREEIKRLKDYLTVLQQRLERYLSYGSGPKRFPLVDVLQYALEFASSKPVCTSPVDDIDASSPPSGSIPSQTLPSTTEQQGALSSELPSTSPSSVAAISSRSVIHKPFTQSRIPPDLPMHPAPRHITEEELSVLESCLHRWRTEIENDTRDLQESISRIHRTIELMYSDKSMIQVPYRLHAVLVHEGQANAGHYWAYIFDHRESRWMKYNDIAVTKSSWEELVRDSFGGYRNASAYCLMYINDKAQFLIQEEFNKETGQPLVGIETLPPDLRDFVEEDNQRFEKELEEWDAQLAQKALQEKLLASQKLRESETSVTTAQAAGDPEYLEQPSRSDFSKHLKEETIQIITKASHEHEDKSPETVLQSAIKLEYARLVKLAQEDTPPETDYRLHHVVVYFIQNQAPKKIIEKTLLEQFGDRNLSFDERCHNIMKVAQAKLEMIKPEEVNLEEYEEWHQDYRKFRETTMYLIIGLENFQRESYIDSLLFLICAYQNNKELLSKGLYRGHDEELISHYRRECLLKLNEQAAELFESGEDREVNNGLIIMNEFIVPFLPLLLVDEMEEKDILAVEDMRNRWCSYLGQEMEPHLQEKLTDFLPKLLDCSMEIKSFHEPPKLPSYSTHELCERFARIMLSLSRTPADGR
Experimental: USP25 activity was measured using ubiquitin-rhodamine 110 method.
as §1, with “Purified USP25” for “Purified USP28”, “with USP25” for “with USP28”, “concentration 15” for “concentration 4”, “the substrate, and the” for “the substrate. The”, “against USP25” for “against USP28”
As in Example 11, according to the inhibitory rates of the test compound against USP25 under different concentrations, IC50 was calculated.

[3] = Inhibitory activity against USP28 (IC50)
[4] = read-out: Inhibitory activity against USP25 (IC50)
[5] = Inhibitory activity against USP25 (IC50)
[6] = read-out: Inhibitory activity against USP28 (IC50)

| SMILES | IC50 [1, 3] [nM] | IC50 [2, 4] [nM] | IC50 [2, 5] [nM] | IC50 [1, 6] [nM] |
| --- | --- | --- | --- | --- |
| CNc1c(C(=O)NCCc2ccc(N3C[C@H]4CC[C@@H](C3)N4)c(C3CC3)c2)sc2nc(C)ccc12 [Compound I-35] | < 100 | 100 to 1000 | – | – |
| CNc1c(C(=O)NCCc2ccc(N3C[C@H]4CC[C@@H](C3)N4)cc2)sc2nc(C(F)F)cc(C)c12 [Compound I-28] | < 100 | – | < 100 | – |
| CNc1c(C(=O)N[C@@H](C)Cc2ccc(Br)cc2)sc2nc(C)ccc12 [Compound I-61] | – | > 10000 | – | 1000 to 5000 |
| CNc1c(C(=O)NCCc2ccc(N3C[C@H]4CC[C@@H](C3)N4)c(F)c2F)sc2nc(C)ccc12 [Compound I-46] | – | 5000 to 10000 | – | 100 to 1000 |
| CNc1c(C(=O)NC2COc3cc(N4CC5CCC(C4)N5)ccc3C2)sc2nc(C)ccc12 (stereo not drawn) [Compound I-86] | – | 1000 to 5000 | – | 100 to 1000 |
| CCc1ccc2c(NC)c(C(=O)N[C@H]3COc4cc(N5CC6CCC(C5)N6)ccc4C3)sc2n1 [Compound I-91] | < 100 | – | < 100 | – |
| CNc1ccc2c(NC)c(C(=O)NCCc3ccc(N4C[C@H]5CC[C@@H](C4)N5)cc3)sc2n1 [Compound I-94] | – | > 10000 | – | 100 to 1000 |
| CNc1c(C(=O)N[C@H](COC)Cc2ccc(N3C[C@H]4CC[C@@H](C3)N4)cc2)sc2nc(C)ccc12 [Compound I-65] | – | 5000 to 10000 | – | 100 to 1000 |
| CNc1c(C(=O)NCCc2ccc(N3C[C@H]4CC[C@@H](C3)N4)cc2)sc2ncc(C)cc12 [Compound I-19] | – | > 10000 | – | 1000 to 5000 |
| CCCc1ccc2c(NC)c(C(=O)NCCc3c[nH]c4ccccc34)sc2n1 [Compound I-51] | – | 1000 to 5000 | – | < 100 |
| CNc1c(C(=O)NCCc2ccc(N3C[C@H]4CC[C@@H](C3)N4)c(F)c2)sc2nc(C)ccc12 [Compound I-40] | < 100 | 100 to 1000 | – | – |
| CNc1c(C(=O)N[C@@H](Cc2ccc(N3C[C@H]4CC[C@@H](C3)N4)cc2)C(F)(F)F)sc2nc(C)ccc12 [Compound I-66] | – | 100 to 1000 | – | 100 to 1000 |
| CNc1c(C(=O)NCCc2ccc(C3C4CCC3CNC4)cc2)sc2nc(C)ccc12 (stereo not drawn) [Compound I-5] | – | < 100 | – | < 100 |
| CNc1c(C(=O)NCCc2ccc(N3C[C@H]4CC[C@@H](C3)N4)cc2)sc2nc(C#N)ccc12 [Compound I-80] | – | 1000 to 5000 | – | 1000 to 5000 |
| CNc1c(C(=O)NCCc2coc3ccccc23)sc2nc(C)ccc12 [Compound I-56] | – | 1000 to 5000 | – | 100 to 1000 |
| CNc1c(C(=O)NCCc2ccc(C3CC4CCC(C3)N4)cc2)sc2nc(C)ccc12 (stereo not drawn) [Compound I-4] | < 100 | – | < 100 | – |
| CNc1c(C(=O)NCCc2ccc(N3C[C@H]4CC[C@@H](C3)N4)cc2F)sc2nc(C)cnc12 [Compound I-77] | < 100 | – | < 100 | – |
| CNc1c(C(=O)NCCc2ccc(N3CC4CCC(C3)N4)cc2)sc2nc(C(C)C)cnc12 [Compound I-73] | < 100 | 100 to 1000 | – | – |
| CNc1c(C(=O)NCCc2ccc(N3C4CCC3CNC4)cc2)sc2nc(C)ccc12 [Compound I-6] | < 100 | – | < 100 | – |
| CNc1c(C(=O)NC2CCc3cc(N4CC5CCC(C4)N5)ccc3C2)sc2nc(C)ccc12 (stereo not drawn) [Compound I-89] | – | 5000 to 10000 | – | 1000 to 5000 |
| CNc1c(C(=O)NCCc2ccc(OC)c(OC)c2)sc2nc(C)cc(C)c12 [Compound I-60] | – | 5000 to 10000 | – | < 100 |
| CNc1c(C(=O)NCCc2ccc(N3C[C@H]4CC[C@@H](C3)N4)cc2)sc2nc(C)c(F)cc12 [Compound I-29] | < 100 | 100 to 1000 | – | – |
| CNc1c(C(=O)NCCc2ccc(N3C[C@H]4CC[C@@H](C3)N4)cc2)sc2nccc(C(F)(F)F)c12 [Compound I-21] | – | 1000 to 5000 | – | 100 to 1000 |
| CNc1c(C(=O)NCCc2ccc(N3C[C@H]4CC[C@@H](C3)N4)c(Cl)c2)sc2nc(C)cnc12 [Compound I-75] | < 100 | – | < 100 | – |
| CNc1c(C(=O)NCCc2ccc(N3C[C@H]4CC[C@@H](C3)N4)cc2)sc2nc(N)cc(C(F)F)c12 [Compound I-95] | < 100 | – | < 100 | – |
| CNc1c(C(=O)NC[C@H](C)c2ccc(N3C[C@H]4CC[C@@H](C3)N4)cc2)sc2nc(C)ccc12 [Compound I-67] | – | 100 to 1000 | – | 100 to 1000 |
| CCc1nc2sc(C(=O)NCCc3ccc(OC)c(OC)c3)c(NC)c2c(C(F)(F)F)c1C [Compound I-59] | – | 1000 to 5000 | – | < 100 |
| CNc1c(C(=O)NC[C@H](C)c2cc(F)c(N3C[C@H]4CC[C@@H](C3)N4)cc2F)sc2nc(C)cnc12 [Compound I-79] | < 100 | 100 to 1000 | – | – |
| CNc1c(C(=O)NCCc2c[nH]c3ccccc23)sc2ncccc12 [Compound I-48] | – | 5000 to 10000 | – | < 100 |
| CNc1c(C(=O)N[C@@H](C)Cc2ccc(N3C[C@H]4CC[C@@H](C3)N4)cc2)sc2nc(C)ccc12 [Compound I-63] | – | > 10000 | – | 100 to 1000 |
